As a reminder, the melting point is the temperature of the solid-liquid transition.

Among the data in patent US6727245B2, “Heterobicyclic derivatives” (Fujisawa Pharmaceutical Co., Ltd., priority 1994, dated 2004) are melting point values, retold here.

Consider `O=C(Nc1cccc(-n2c(=O)c(Cc3cccnc3)nc3cccnc32)c1)Oc1ccccc1`, for which the melting point fell in the range of 227 to 232 °C.

On to `COc1ccccc1NC(=O)Nc1cccc(-n2c(=O)c(CCC(=O)O)nc3cccnc32)c1` [Example 16(12), 2-(2-Carboxyethyl)-3-oxo-4-[3-[3-(2-methoxyphenyl)-ureido]phenyl]-3,4-dihydropyrido[2,3-b]pyrazine], for which the melting point was 143 to 153 °C (dec.).

Turning to `COc1ccccc1NC(=O)Nc1cccc(-n2c(=O)c(Cc3ccc(O)cc3)nc3cccnc32)c1` [Example 16(13), 2-(4-Hydroxyphenylmethyl)-3-oxo-4-[3-[3-(2-methoxyphenyl)ureido]phenyl]-3,4-dihydropyrido-[2,3-b]pyrazine], the melting point lay in the range of 220 to 221 °C.

On to `COc1ccccc1NC(=O)Nc1cccc(-n2c(=O)c(Cc3ccccc3[N+](=O)[O-])nc3cccnc32)c1` [Example 16(14), 2-(2-Nitrophenylmethyl)-3-oxo-4-[3-[3-(2-methoxyphenyl)ureido]phenyl]-3,4-dihydropyrido[2,3-b]pyrazine], for which the melting point is 200 to 208 °C (dec.).

For `CC(=O)Nc1cccc(-n2c(=O)c(CCC(=O)O)nc3cccnc32)c1` [Example 16(15), 4-(3-Acetamidophenyl)-2-(2-carboxyethyl)-3-oxo-3,4-dihydropyrido[2,3-b]pyrazine], the melting point was 264 to 269 °C (dec.).

`CCOc1ccc2nc(Cc3ccccc3)c(=O)n(-c3cccc(NC(C)=O)c3)c2n1` [Example 16(16), 4-(3-Acetamidophenyl)-2-benzyl-6-ethoxy-3-oxo-3,4-dihydropyrido[2,3-b]pyrazine] registered a melting point of 212 to 214 °C.

`COc1ccccc1NC(=O)Nc1cccc(-n2c(=O)c(CCC(=O)ON3C(=O)CCC3=O)nc3cccnc32)c1` [Example 23, 4-[3-[3-(2-methoxyphenyl)ureido]-phenyl]-3-oxo-2-[2-succinimidooxycarbonylethyl)-3,4-dihydropyrido[2,3-b]pyrazine] registered a melting point of 235 to 237 °C.

On to `COc1ccccc1NC(=O)Nc1cccc(-n2c(=O)c(CCC(=O)N(C)C)nc3cccnc32)c1` [Example 24, 2-[2-(N,N-dimethylcarbamoyl)ethyl]-3-oxo-4-[3-[3-(2-methoxyphenyl)-ureido]phenyl]-3,4-dihydropyrido[2,3-b]pyrazine], for which the melting point lay in the range of 242 to 245 °C.

As to `CCOC(=O)CCc1nc2cccnc2n(-c2cccc(NC(=O)Nc3ccccc3OC)c2)c1=O` [Example 33, 2-(2-ethoxycarbonylethyl)-3-oxo-4-[3-[3-(2-methoxyphenyl)-ureido]phenyl]-3,4-dihydropyrido[2,3-b]pyrazine], the melting point was found to be 175 °C.

The compound `CCCOC(=O)CCc1nc2cccnc2n(-c2cccc(NC(=O)Nc3ccccc3OC)c2)c1=O` [Example 34(1), 4-[3-[3-(2-Methoxyphenyl)ureido]phenyl]-3-oxo-2-(2-propyloxycarbonylethyl)-3,4-dihydropyrido[2,3-b]-pyrazine] yielded a melting point of 161 to 163 °C.

With `COC(=O)CCc1nc2cccnc2n(-c2cccc(NC(=O)Nc3ccccc3OC)c2)c1=O` [Example 34(2), 2-(2-Methoxycarbonylethyl)-3-oxo-4-[3-[3-(2-methoxyphenyl)ureido]phenyl]-3,4-dihydropyrido-[2,3-b]pyrazine], the melting point is 194 to 196 °C.

`COc1ccccc1NC(=O)Nc1cccc(-n2c(=O)c(CCC(=O)N3CCN(C)CC3)nc3cccnc32)c1` [Example 35, 4-[3-[3-(2-methoxyphenyl)ureido]phenyl]-2-[2-(4-methylpiperazin-1-yl)carbonylethyl]-3-oxo-3,4-dihydropyrido[2,3-b]pyrazine]: the melting point is 195 to 197 °C.

Take `COC(=O)[C@@H]1CCCN1C(=O)CCc1nc2cccnc2n(-c2cccc(NC(=O)Nc3ccccc3OC)c2)c1=O` [Example 36, 4-[3-[3-(2-Methoxyphenyl)ureido]phenyl]-3-oxo-2-[2[(2S)-2-methoxycarbonylpyrrolidin-1-yl]carbonylethyl]-3,4-dihydropyrido[2,3-b]pyrazine]: the melting point fell in the range of 209 to 212 °C.

The compound `O=C(Nc1ccc(F)c(-n2c(=O)c(Cc3cccnc3)nc3cccnc32)c1)c1ccc2ccccc2c1` [Example 41(20), 4-[2-Fluoro-5-(2-naphthoylamino)phenyl]-2-(3-pyridylmethyl)-3-oxo-3,4-dihydropyrido[2,3-b]pyrazine] came in with a melting point of 264 to 268 °C.

`O=c1c(Cc2cccnc2)nc2cccnc2n1-c1cccc(-c2ccc3ccccc3c2)c1` [Example 43, 4-[3-(2-naphthyl)phenyl]-2-(3-pyridylmethyl)-3-oxo-3,4-dihydropyrido[2,3-b]pyrazine] yielded a melting point of 155 to 156 °C.

On to `COc1ccccc1NC(=O)Nc1cccc(-n2c(=O)c(Cc3ccccc3)nc3cccnc32)c1` [Example 45(6), 2-Benzyl-4-[3-[3-(2-methoxyphenyl)ureido]phenyl]-3-oxo-3,4-dihydropyrido[2,3-b]pyrazine], for which the melting point was 238 to 239 °C.

In turn, `N#Cc1cccn1-c1cccc(-n2c(=O)c(Cc3ccccc3)nc3cccnc32)c1` [Example 45(7), 2-Benzyl-4-[3-(2-cyanopyrrol-1-yl)phenyl]-3-oxo-3,4-dihydropyrido[2,3-b]pyrazine] yielded a melting point of 165 to 166 °C.

Turning to `O=c1c(Cc2ccccc2)nc2cccnc2n1-c1cccc(-c2nc3ccccc3s2)c1` [Example 45(8), 2-Benzyl-4-[3-(benzothiazol-2-yl)phenyl]-3-oxo-3,4-dihydropyrido[2,3-b]pyrazine], the melting point was 197 to 198 °C.

`O=C(c1ccccc1)c1cccc(-n2c(=O)c(Cc3ccccc3)nc3cccnc32)c1` [Example 45(9), 2-Benzyl-4-(3-benzoylphenyl)-3-oxo-3,4-dihydropyrido[2,3-b]pyrazine] returned a melting point of 154 to 155 °C.

`O=c1c(Cc2ccccc2)nc2cccnc2n1-c1cccc(C(F)(F)F)c1` [Example 45(10), 2-Benzyl-4-(3-trifluoromethylphenyl)-3-oxo-3,4-dihydropyrido[2,3-b]pyrazine] returned a melting point of 125 to 127 °C.

`CC(=O)c1cn(-c2cccc(-n3c(=O)c(Cc4ccccc4)nc4cccnc43)c2)c2ccccc12` [Example 45(11), 2-Benzyl-4-[3-(3-acetylindol-1-yl)phenyl]-3-oxo-3,4-dihydropyrido[2,3-b]pyrazine]: the melting point lay in the range of 157 to 159 °C.

For the compound `COC(=O)c1cccc(-n2c(=O)c(Cc3cccnc3)nc3cccnc32)c1` [Example 45(12), 4-(3-Methoxycarbonylphenyl)-2-(3-pyridylmethyl)-3-oxo-3,4-dihydropyrido[2,3-b]pyrazine], the melting point lay within 208 to 210 °C.

`O=c1c(Cc2cccnc2)nc2cccnc2n1-c1cccc(-n2cccc2)c1` [Example 45(13), 4-[3-(1-Pyrrolyl)phenyl]-2-(3-pyridylmethyl)-3-oxo-3,4-dihydropyrido[2,3-b]pyrazine] registered a melting point of 128 to 130 °C.

`O=c1c(Cc2cccnc2)nc2cccnc2n1-c1cccc(C(F)(F)F)c1` [Example 45(14), 4-(3-Trifluoromethylphenyl)-2-(3-pyridylmethyl)-3-oxo-3,4-dihydropyrido[2,3-b]pyrazine] had a melting point of 88 to 90 °C.

On to `CC(=O)Nc1ccc(F)c(-n2c(=O)c(Cc3cccnc3)nc3cccnc32)c1` [Example 45(15), 4-(5-Acetamido-2-fluorophenyl)-2-(3-pyridylmethyl)-3-oxo-3,4-dihydropyrido[2,3-b]pyrazine], for which the melting point is 212 to 214 °C.

Turning to `O=C(c1ccccc1)c1cccc(-n2c(=O)c(Cc3cccnc3)nc3cccnc32)c1` [Example 45(16), 4-(3-Benzoylphenyl)-2-(3-pyridylmethyl)-3-oxo-3,4-dihydropyrido[2,3-b]pyrazine], the melting point was in the range of 142 to 143 °C.

On to `CC(=O)c1cn(-c2cccc(-n3c(=O)c(Cc4cccnc4)nc4cccnc43)c2)c2ccccc12` [Example 45(17), 4-[3-(3-Acetylindol-1-yl)phenyl]-2-(3-pyridylmethyl)--3-oxo-3,4-dihydropyrido[2,3-b]pyrazine], for which the melting point was in the range of 153 to 156 °C.

Regarding `O=c1c(Cc2cccnc2)nc2cccnc2n1-c1cccc(-n2ccc3ccccc32)c1` [Example 45(18), 4-[3-(1-Indolyl)phenyl]-2-(3-pyridylmethyl)-3-oxo-3,4-dihydropyrido[2,3-b]pyrazine], the melting point fell in the range of 166 to 168 °C.

`O=c1c(Cc2cccnc2)nc2cccnc2n1-c1cccc(-c2cccc3ccccc23)c1` [Example 45(19), 4-[3-(1-Naphthyl)phenyl]-2-(3-pyridylmethyl)-3-oxo-3,4-dihydropyrido[2,3-b]pyrazine] registered a melting point of 162 to 165 °C.

`Nc1cccc(-n2c(=O)c(Cc3cccnc3)nc3cccnc32)c1` [Example 46, 4-(3-aminophenyl)-2-(3-pyridylmethyl)-3-oxo-3,4-dihydropyrido[2,3-b]pyrazine] displayed a melting point of 168 to 170 °C.

Take `Nc1ccc(F)c(-n2c(=O)c(Cc3cccnc3)nc3cccnc32)c1` [Example 47, 4-(5-Amino-2-fluorophenyl)-2-(3-pyridylmethyl)-3-oxo-3,4-dihydropyrido[2,3-b]pyrazine]: the melting point fell in the range of 177 to 179 °C.

As to `O=C(Nc1ccc(F)c(-n2c(=O)c(Cc3cccnc3)nc3cccnc32)c1)Nc1ccccc1F` [Example 50(1), 4-[2-Fluoro-5-[3-(2-fluorophenyl)ureido]phenyl]-2-(3-pyridylmethyl)-3-oxo-3,4-dihydropyrido[2,3-b]pyrazine], the melting point was in the range of 146 to 149 °C.

`COc1ccccc1NC(=O)Nc1ccc(F)c(-n2c(=O)c(Cc3cccnc3)nc3cccnc32)c1` [Example 50(2), 4-[2-Fluoro-5-[3-(2-methoxyphenyl)ureido]phenyl]-2-(3-pyridylmethyl)-3-oxo-3,4-dihydropyrido[2,3-b]pyrazine] showed a melting point of 152 to 155 °C.

`O=C(Nc1cccc(-n2c(=O)c(Cc3cccnc3)nc3cccnc32)c1)Nc1ccccc1[N+](=O)[O-]` [Example 50(3), 4-[3-[3-(2-Nitrophenyl)ureido]phenyl]-2-(3-pyridylmethyl)-3-oxo-3,4-dihydropyrido[2,3-b]pyrazine] had a melting point of 188 to 189 °C.
